The target of one experiment is E. coli β-galactosidase (Escherichia coli, UniProt P00722). The following applies: psi 2 BAGα cells constitutively expressing β-galactosidase; 3 hr at 37° C.; excitation 633 nm; emission 685-710 nm (panel B).
The next experiment deals with CHO cells. Briefly: Cell staining with liposomes containing DDAO-gal, CHO cells (FMAT fluorescence). Type of experiment: cell-based, Chinese Hamster. The following applies: no endogenous β-galactosidase, 3 hr at 37° C., excitation 633 nm. The method, then: The experiments shown in FIGS. 7-9, were conducted under similar conditions to those of FIGS. 1-3, respectively, with the exception that Chinese Hamster Ovary (CHO) cells were used.

E. coli β-galactosidase, sequence (P00722 whole entry): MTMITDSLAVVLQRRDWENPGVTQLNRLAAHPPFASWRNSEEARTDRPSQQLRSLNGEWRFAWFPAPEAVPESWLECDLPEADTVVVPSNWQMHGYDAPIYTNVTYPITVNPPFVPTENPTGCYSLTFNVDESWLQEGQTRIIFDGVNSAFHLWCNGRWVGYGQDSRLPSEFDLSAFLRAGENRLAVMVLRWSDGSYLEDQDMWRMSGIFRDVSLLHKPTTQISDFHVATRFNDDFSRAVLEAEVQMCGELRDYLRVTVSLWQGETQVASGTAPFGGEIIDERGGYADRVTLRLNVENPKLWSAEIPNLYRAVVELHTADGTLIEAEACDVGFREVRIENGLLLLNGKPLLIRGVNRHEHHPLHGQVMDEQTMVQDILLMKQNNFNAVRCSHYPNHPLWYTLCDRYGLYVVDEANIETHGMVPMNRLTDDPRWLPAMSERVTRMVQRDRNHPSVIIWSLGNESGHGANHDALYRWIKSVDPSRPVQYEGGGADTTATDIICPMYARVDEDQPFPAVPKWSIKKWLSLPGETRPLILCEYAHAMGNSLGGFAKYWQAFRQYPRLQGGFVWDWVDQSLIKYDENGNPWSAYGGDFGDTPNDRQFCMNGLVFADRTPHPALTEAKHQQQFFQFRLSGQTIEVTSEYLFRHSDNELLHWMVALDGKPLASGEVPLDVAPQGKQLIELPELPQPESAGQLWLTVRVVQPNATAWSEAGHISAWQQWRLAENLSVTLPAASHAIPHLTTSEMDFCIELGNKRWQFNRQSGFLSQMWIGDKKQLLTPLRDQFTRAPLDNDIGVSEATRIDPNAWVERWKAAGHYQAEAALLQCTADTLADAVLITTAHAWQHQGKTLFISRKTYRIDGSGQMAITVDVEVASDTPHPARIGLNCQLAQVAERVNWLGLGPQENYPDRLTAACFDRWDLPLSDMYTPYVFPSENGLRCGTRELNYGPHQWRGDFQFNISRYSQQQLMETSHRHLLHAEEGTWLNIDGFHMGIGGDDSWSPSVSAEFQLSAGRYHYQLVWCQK
Experimental for E. coli β-galactosidase: Psi 2 BAGα cells (ATCC, catalog no. CRL-9560) in Dulbecco's modified Eagle's medium (ATCC, catalog no. 30-2002) containing 5% Fetal Bovine Serum (FBS, HyClone, catalog no. SH30071.03) and 1% penicillin-streptomycin solution (pen/strep, ATCC, catalog no. 30-2300) were seeded (200 μl/well, 10,000 cell/well) in black 96 well microtiter plates (ABI, catalog no. 4308776). […] After overnight incubation at 37° C. under 5% CO2 the supernatants were removed carefully so as not to detach the adherent cells from the wells. Solutions of liposome encapsulated DDAO-gal, liposome encapsulated DDAO and nonencapsulated DDAO-gal were prepared in the appropriate cell medium and then added to the cells (200 μl/well). The nonencapsulated DDAO-gal solution was used as a negative control (no liposome, passive uptake) and the liposome encapsulated DDAO solution was used as a positive control (DDAO is the product of DDAO-gal hydrolysis). After incubation for 3 hr at 37° C. under 5% CO2 the staining solutions were removed carefully and the cells were washed twice with Dulbecco's PBS (200 μl, ATCC, catalog no. 30-2200). PBS (200 μl) was added to the wells and the plate was read using an 8100 FMAT instrument (Applied Biosystems, an Applera Corporation business).
DDAO-gal without liposomes were used as a negative control (passive load) and liposomes containing DDAO were used as a positive control. […]

Consider `CC1(C)C2=C(Cl)C(=O)C(Cl)=CC2=Nc2ccc(O[C@@H]3O[C@H](CO)[C@H](O)[C@H](O)[C@H]3O)cc21` [DDAO-gal, 9H-(1,3-dichloro-9,9-dimethylacridin-2-one-7-yl) β-D-galactopyranoside], for which the fluorescent signal result on E. coli β-galactosidase is on record as “much lower signal”; in the experiment with CHO cells, “signal observed”.

The values are drawn from patent publication US20050244907A1, “Methods, compositions, and kits for analysis of enzyme activity in cells” (Applera Corporation, priority 2003, published 2005).
